# Assay results: patent US10239847B1, “Method for 2-oxothiazolidine-4-carboxylic acid for cellular glutathione” (JBP Group LLC, priority 2016, dated 2019)
# “Also recorded” adds a separate entry of the source. Where two headings read alike, the source gives them in different places.
# How the values were obtained:
# Human HIV patients [1] = experiment: Clinical: single oral dose then 3000, 4500, 9000 mg/day for 28 days, HIV patients; format: in vivo; details: compared to human oral, suggested human oral dose 25 mg/kg/day
# Source text: (§1) The following tables are a compilation of known results and estimates of NOAEL/LOAEL for various animal species and humans. […] In addition, genetic toxicity studies, Ames Test, Chromosome Aberration, and Mouse Micronucleus have been conducted and all of these studies were negative for genetic toxicity (i.e. non-genotoxic).
# (§2) The following is a compilation of known results and estimates of NOAEL/LOAEL for various animal species and humans.
# blood glutathione levels = details: human, oral 25-129 mg/kg (1.75-9 g/day), dose response manner; cited from earlier work
# [2] = system: intracellular levels of glutathione; details: preclinical studies; cited from earlier work
# dogs [3] = experiment: Acute and repeat intravenous NOAEL in dogs; format: in vivo; details: recommended daily intake 1.75 g (~25 mg/kg) compared to dog IV NOAEL
# Procedure: (§3) Utilizing animal (dog and rat) data and comparing that to the recommended daily procysteine (Cellactin) intake of 1.75 g or ˜25 mg/kg, that represents 18× to 96× safety margin compared to acute no adverse effect level (NOAEL) and repeat NOAEL intravenous administration in dogs (450 mg/kg) and rats (2400 mg/kg), respectively. The safety margin may be even greater if compared to animal oral administration data.
# (§4) Acute NOAEL and repeat NOAEL for intravenous administration in dogs was 450 mg/kg and in rats was 2400 mg/kg, with these values representing the highest dosages intravenously tested and it is assumed that the NOAEL levels would be even higher for oral administration in animals. […] Therefore, it is reasonable to expect that a recommended human oral, daily procysteine (Cellactin) intake of 1.75 grams will be safe and an acceptable daily intake of up to 9 grams orally could also be considered safe.
# [4] = Shelf life / purity stability of Cellactin; format: physicochemical
# Source text: FIG. 9 illustrates Cellactin shelf life estimation by extrapolation. As depicted that upper dotted line indicates an upper acceptance of 100 percent stability. The lower dotted line indicates 99 percent stability. The solid line represents the extrapolation line with the triangles representing raw data. The product has been extrapolated to be stable for 2 years as supplied if stored in original package at ambient temperature and protected from heat and moisture. […] Confirmation of extrapolation assumes the change pattern may continue to fit model for at least 24 months.
# rats [5] = details: rat, in vivo; cited from earlier work
# Human HIV patients [6] = details: single IV then six biweekly infusions, 13 administrations, highest dose tested; cited from earlier work
# Human HIV patients [7] = experiment: Clinical: oral daily for 6 months, HIV patients; format: in vivo; details: compared to human oral, suggested human oral dose 25 mg/kg/day
# Source text: as §1, §2
# human [8] = details: cited from earlier work
# Dog [9] = details: in vivo, iv; cited from earlier work
# rats [10] = experiment: Acute and repeat intravenous NOAEL in rats; format: in vivo; details: recommended daily intake 1.75 g (~25 mg/kg) compared to rat IV NOAEL
# Procedure: as §3, §4
# Rat [11] = details: in vivo, iv; cited from earlier work
# Human HIV patients [12] = experiment: Clinical: orally up to 9000 mg/day for 2 years, HIV patients; format: in vivo
# Dog [13] = experiment: Once daily IV for 28 days, dog; format: in vivo; details: compared to IV dog, suggested human oral dose 0.025 g/kg
# Source text: as §1, §2
# [14] = system: tissue glutathione levels; details: acutely septic rats; cited from earlier work
# Mouse [15] = details: in vivo; cited from earlier work
# Mouse [16] = details: in vivo, iv; cited from earlier work
# patients with ARDS [17] = details: first Phase II trial, 32 ARDS patients, IV; cited from earlier work
# [18] = system: glutathione in rat lungs and leukocytes; details: sulfur amino acid deficient rat diets, supplementation; cited from earlier work
# dogs [19] = details: dog, in vivo; cited from earlier work
# Human HIV patients [20] = experiment: Clinical: oral ≥25 mg/kg daily for 1 week, HIV patients; format: in vivo; details: compared to human oral, suggested human oral dose 25 mg/kg/day
# Source text: as §1, §2
# Human HIV patients [21] = experiment: Clinical: single IV then six biweekly infusions, 13 administrations, HIV patients; format: in vivo; details: compared to human IV; suggested human oral dose 25 mg/kg/day
# Source text: as §1, §2
# Rat [22] = experiment: Once daily IV for 28 days, rat; format: in vivo; details: compared to IV rat, suggested human oral dose 0.025 g/kg
# Source text: as §1, §2
# [23] = system: cellular glutathione levels; details: glutathione-depleting agents administered to otherwise healthy animals; cited from earlier work
# Human ARDS patients [24] = experiment: Clinical: IV 63 mg/kg every 8 hours for 10 days, ARDS patients; format: in vivo; details: compared to IV human (ARDS); suggested human oral dose 25 mg/kg/day
# Source text: as §1, §2
# Rat [25] = experiment: Single IV toxicity (NOAEL/LOAEL), rat; format: in vivo; details: compared to IV rat, suggested human oral dose 0.025 g/kg
# Source text: as §1, §2
# Dog [26] = experiment: Single IV toxicity (NOAEL/LOAEL), dog; format: in vivo; details: compared to IV dog, suggested human oral dose 0.025 g/kg
# Source text: as §1, §2
# human [27] = experiment: Human intravenous NOAEL calculations; format: in vivo; details: oral daily intake 1.75 grams compared to human intravenous NOAEL calculations
# Source text: (§5) This would then result in an EDI/ADI ratio of 9 grams/day/9 grams/day=1. Without knowing the NOAEL or LOAEL for humans it is difficult to determine a true estimate of margin of safety. […] However, it would be reasonable to assume that a much higher estimate of safety margin would be expected based on the 4-8× estimate comparing oral, daily Procysteine (Cellactin) intake of 1.75 grams to human intravenous NOAEL calculations shown above in section 4.1 and 18 or 96× comparing to dog and rat intravenous NOAEL calculations, respectively shown above in Section 4.1. It is reasonable to conclude that the safety margin would be even greater if compared to animal oral administration data.
# as §5, with “Without” for “This would then result in an EDI/ADI ratio of 9 grams/day/9 grams/day=1. Without”
# patients with ARDS [28] = details: Phase II, versus placebo; cited from earlier work
# Mouse [29] = experiment: Single IV toxicity (NOAEL/LOAEL), mouse; format: in vivo; details: printed 'compared to IV rat', suggested human oral dose 0.025 g/kg
# Source text: as §1, §2
# Human HIV patients [30] = details: cited from earlier work
# Human ARDS patients [31] = details: IV every 8 hours for 10 days, highest dose tested, cited from earlier work
# Human HIV patients [32] = details: oral ≥25 mg/kg daily for 1 week, highest dose tested; cited from earlier work
# Rat, neonate = details: in vivo, iv; cited from earlier work
# Dog [33] = details: in vivo, iv; cited from earlier work; remark: listed apart in the source
# [34] = system: tissue glutathione levels; details: rodent brains; cited from earlier work
# Rat [35] = details: in vivo, iv; cited from earlier work; remark: listed apart in the source
# liver glutathione levels = details: fasted mice, dietary supplementation; cited from earlier work
# [36] = human, oral, as used for the EDI/ADI ratio
structure (smiles),measurement,setting,value
"O=C1N[C@H](C(=O)O)CS1 [procysteine, L-2-oxothiazolidine-4-carboxylate]",Safety Margin Human Oral,Human HIV patients [1],5X compared
same,blood glutathione levels,blood glutathione levels,significant increase
same,ROS damage,[2],prevent
same,intracellular levels of glutathione,[2],increase
same,safety margin,dogs [3],18 ×
same,"shelf life (stable as supplied), by extrapolation","[4]; original package, ambient temperature, protected from heat and moisture",2 years
same,purity percent change,"[4]; two preparation batches, T0 to T6 (months)",No purity percent change
same,"acute NOAEL and repeat NOAEL, intravenous administration",rats [5],2400 mg/kg
same,NOAEL,Human HIV patients [6],≥100 mg/kg/day
same,Safety Margin Human Oral,Human HIV patients [7],5X compared
same,adverse experiences possibly related to treatment,human [8]; across all clinical trials,only minor adverse experiences
same,statistically significant adverse events,human [8]; human clinical trials,No statistical significant adverse events were observed
same,tolerability,human [8]; human clinical trials,well tolerated
same,tolerability,"human [8]; human clinical trials, listed as procysteine (Cellactin)",generally well tolerated without observed adverse effects; also recorded: well tolerated
same,NOAEL,Dog [9],≥450 mg/kg
same,safety margin,rats [10],96 ×
same,NOAEL,Rat [11],≥2400 mg/kg
same,EDI/ADI ratio,Human HIV patients [12]; 9 grams/day / 9 grams/day,1
same,Safety Margin Human Oral,"Human HIV patients [12]; compared to human oral, 2 years, suggested human oral dose 25 mg/kg/day",5X compared
same,ADI,Human HIV patients [12]; [36],< 9 grams/day
same,estimated daily intake (EDI),Human HIV patients [12]; [36],< 9 grams/day
same,acceptable daily intake (ADI),"Human HIV patients [12]; human, oral, based on 9 grams per day for 2 years",up to 9 grams per day
same,safety margin,Human HIV patients [12]; recommended oral daily intake 1.75 g compared to 9 grams per day taken orally for 2 years,5 ×
same,Safety Margin Human Oral,Dog [13],18× compared
same,tissue glutathione levels,[14],increased (repleted)
same,"Mouse Micronucleus, genetic toxicity",Mouse [15],negative
same,NOAEL,Mouse [16],≥2400 mg/kg
same,independence from mechanical ventilation versus placebo,patients with ARDS [17],a median of five days earlier
same,glutathione in rat lungs and leukocytes,[18],preserved
same,"acute NOAEL and repeat NOAEL, intravenous administration",dogs [19],450 mg/kg
same,Safety Margin Human Oral,Human HIV patients [20],1X compared
same,Safety Margin Human Oral,Human HIV patients [21],4X compared
same,Safety Margin Human Oral,Rat [22],96× compared
same,cellular glutathione levels,[23],maintained
same,Safety Margin Human Oral,Human ARDS patients [24],8X compared
same,Safety Margin Human Oral,Rat [25],96× compared
same,Safety Margin Human Oral,Dog [26],18× compared
same,estimate of safety margin,human [27],4-8 ×
same,efficiency in transporting oxygen to the blood stream (measure of lung function),patients with ARDS [28],to a greater degree than did placebo-treated patients
same,Safety Margin Human Oral,Mouse [29],96× compared
same,NOAEL,"Human HIV patients [30]; Human HIV patients, orally up to 9000 mg/day for 2 years, highest dose tested",≥129 mg/kg/day
same,changes in serum chemistry or hematology,"Human HIV patients [30]; human, up to 9 grams per day orally for 2 years",without clinically significant changes
same,NOAEL,Human ARDS patients [31]; expressed per day,≥ 189 mg/kg/day
same,NOAEL,Human ARDS patients [31],≥63 mg/kg/8 hours
same,NOAEL,Human HIV patients [32],≥25 mg/kg/day
same,NOAEL,"Rat, neonate",≥450 mg/kg
same,NOAEL,Dog [33],≥450 mg/kg
same,tissue glutathione levels,[34],increased (repleted)
same,NOAEL,Rat [35],≥2400 mg/kg
same,liver glutathione levels,liver glutathione levels,increased
